Measured values as given in patent publication US20200369629A1, “BENZAMIDE COMPOUNDS AND THEIR USE AS HERBICIDES” (BASF SE, priority 2017, published 2020).

Columns and labels:
Type in all cases: in vivo
[1] = test system: ALOMY (Alopecurus myosuroiedes); assay: Greenhouse post-emergence test, test series 1, ALOMY; conditions: application rate 62.5 g/ha, scale 0 to 100 (100 = complete destruction, 0 = no damage)
Excerpt: (§1) The seeds of the test plants were sown separately for each species. For the pre-emergence treatment, the active ingredients, which had been suspended or emulsified in water, were applied directly after sowing by means of finely distributing nozzles. The containers were irrigated gently to promote germination and growth and subsequently covered with transparent plastic hoods until the plants had rooted. This cover caused uniform germination of the test plants, unless this had been impaired by the active ingredients. For the post-emergence treatment, the test plants were first grown to a height of 3 to 15 cm, depending on the plant habit, and only then treated with the active ingredients which had been suspended or emulsified in water. For this purpose, the test plants were either sown directly and grown in the same containers, or they were first grown separately as seedlings and transplanted into the test containers a few days prior to treatment. Depending on the species, the plants were kept at 10-25° C. or 20-25° C., respectively. The test period extended over 2 to 4 weeks. During this time, the plants were tended, and their response to the individual treatments was evaluated. Evaluation was carried out using a scale from 0 to 100. 100 means no emergence of the plants, or complete destruction of at least the aerial moieties, and 0 means no damage, or normal course of growth. A good herbicidal activity is given at values of at least 70 and a very good herbicidal activity is given at values of at least 85. Test Series 1: At an application rate of 62.5 g/ha the following compounds were tested in post-emergence tests against: ALOMY (Alopecurus myosuroiedes)

[2] = test system: ECHCG (Echinocloa crus-galli); assay: Greenhouse post-emergence test, test series 1, ECHCG; conditions: Echinochloa crus-galli, application rate 62.5 g/ha, scale 0 to 100 (100 = complete destruction, 0 = no damage)
Excerpt: as §1, with “ECHCG (Echinocloa crus-galli)” for “ALOMY (Alopecurus myosuroiedes)”

SETFA (Setaria faberi) = assay: Greenhouse pre-emergence test, test series 2, SETFA; conditions: application rate 125 g/ha, scale 0 to 100 (100 = no emergence, 0 = no damage)
Excerpt: as §1, with “Series 2:” for “Series 1:”, “of 125” for “of 62.5”, “in pre-emergence” for “in post-emergence”, “tests against SETFA (Setaria faberi)” for “tests against: ALOMY (Alopecurus myosuroiedes)”

| Compound | pest or weed control at 62.5 g/ha [1] [%] | pest or weed control at 62.5 g/ha [2] [%] | pest or weed control at 125 g/ha (SETFA (Setaria faberi)) [%] |
| --- | --- | --- | --- |
| Cc1c(NC(=O)N(C)CC(F)(F)F)c(Br)cc(F)c1C(=O)Nc1nnnn1C [Example 1, 4-bromo-6-fluoro-2-methyl-N-(1-methyltetrazol-5-yl)-3-[[methyl(2,2,2-trifluoroethyl)carbamoyl]amino]benzamide] | > 85 | > 85 | > 85 |
| CCN(CC(F)(F)F)C(=O)Nc1c(Br)cc(F)c(C(=O)Nc2nnnn2C)c1C [Example 2, 4-bromo-6-fluoro-2-methyl-N-(1-methyltetrazol-5-yl)-3-[[ethyl(2,2,2-trifluoroethyl)carbamoyl]amino]benzamide] | > 85 | > 85 | > 85 |
| Cc1c(NC(=O)N(CC(F)(F)F)CC(F)(F)F)c(Br)cc(F)c1C(=O)Nc1nnnn1C [Example 3] | > 85 | > 85 | > 85 |
| Cc1c(NC(=O)N(CC(F)(F)F)C2CC2)c(Br)cc(F)c1C(=O)Nc1nnnn1C [Example 6] | > 85 | > 85 | > 85 |
| Cn1nnnc1NC(=O)c1c(F)cc(Cl)c(NC(=O)N(CC(F)(F)F)C2CC2)c1Cl [Example 7] | > 85 | > 85 | > 85 |
| CCN(CC(F)(F)F)C(=O)Nc1c(Cl)cc(F)c(C(=O)Nc2nnnn2C)c1Cl [Example 8] | – | > 85 | > 85 |
| CN(CC(F)(F)F)C(=O)Nc1c(Cl)cc(F)c(C(=O)Nc2nnnn2C)c1Cl [Example 9, 2,4-dichloro-6-fluoro-N-(1-methyltetrazol-5-yl)-3-[[methyl(2,2,2-trifluoroethyl)carbamoyl]amino]benzamide] | > 85 | > 85 | – |
| CN(CC(F)(F)F)C(=O)Nc1c(C(F)(F)F)cc(F)c(C(=O)Nc2nnnn2C)c1Cl [Example 10] | > 85 | > 85 | > 85 |
| Cc1c(NC(=O)N(C)CC(F)(F)F)c(Cl)cc(F)c1C(=O)Nc1nnnn1C [Example 12] | > 85 | > 85 | – |
| Cc1c(NC(=O)N(CC(F)(F)F)C(C)C)c(Cl)cc(F)c1C(=O)Nc1nnnn1C [Example 13] | – | > 85 | > 85 |
| CC(C)N(CC(F)(F)F)C(=O)Nc1c(C(F)(F)F)cc(F)c(C(=O)Nc2nnnn2C)c1Cl [Example 14] | > 85 | > 85 | > 85 |
| CCN(CC(F)(F)F)C(=O)Nc1c(Cl)cc(F)c(C(=O)Nc2nnnn2C)c1C [Example 18] | > 85 | > 85 | > 85 |
| Cc1c(NC(=O)N(CC(F)(F)F)CC(F)(F)F)c(Cl)cc(F)c1C(=O)Nc1nnnn1C [Example 19] | > 85 | > 85 | – |
| CC(C)N(CC(F)(F)F)C(=O)Nc1c(Cl)cc(F)c(C(=O)Nc2nnnn2C)c1Cl [Example 20] | > 85 | > 85 | – |
| Cc1c(NC(=O)N(CC(F)(F)F)C2CC2)c(Cl)cc(F)c1C(=O)Nc1nnnn1C [Example 21] | > 85 | > 85 | > 85 |
| Cn1nnnc1NC(=O)c1c(F)cc(C(F)(F)F)c(NC(=O)N(CC(F)(F)F)CC(F)(F)F)c1Cl [Example 22] | > 85 | > 85 | > 85 |
